Data reported in ChEMBL document CHEMBL5338706, “Discovery of a potent and selective proteolysis targeting chimera (PROTAC) degrader of NSD3 histone methyltransferase” (Eur J Med Chem, 2022).
pEC50: −log10 of the molar value. The source made the active and inactive calls. No cut-off for these calls is given here.

What was measured:
[1] = target: T1, Histone-lysine N-methyltransferase NSD3 (Homo sapiens) (UniProt Q9BZ95); experiment: (§1) Induction of NSD3 degradation in human NCI-H1703 cells incubated for 72 hrs by Western blot analysis; assay type: cell-based; conditions: dose 0.001-5 µM
T1 sequence (whole entry): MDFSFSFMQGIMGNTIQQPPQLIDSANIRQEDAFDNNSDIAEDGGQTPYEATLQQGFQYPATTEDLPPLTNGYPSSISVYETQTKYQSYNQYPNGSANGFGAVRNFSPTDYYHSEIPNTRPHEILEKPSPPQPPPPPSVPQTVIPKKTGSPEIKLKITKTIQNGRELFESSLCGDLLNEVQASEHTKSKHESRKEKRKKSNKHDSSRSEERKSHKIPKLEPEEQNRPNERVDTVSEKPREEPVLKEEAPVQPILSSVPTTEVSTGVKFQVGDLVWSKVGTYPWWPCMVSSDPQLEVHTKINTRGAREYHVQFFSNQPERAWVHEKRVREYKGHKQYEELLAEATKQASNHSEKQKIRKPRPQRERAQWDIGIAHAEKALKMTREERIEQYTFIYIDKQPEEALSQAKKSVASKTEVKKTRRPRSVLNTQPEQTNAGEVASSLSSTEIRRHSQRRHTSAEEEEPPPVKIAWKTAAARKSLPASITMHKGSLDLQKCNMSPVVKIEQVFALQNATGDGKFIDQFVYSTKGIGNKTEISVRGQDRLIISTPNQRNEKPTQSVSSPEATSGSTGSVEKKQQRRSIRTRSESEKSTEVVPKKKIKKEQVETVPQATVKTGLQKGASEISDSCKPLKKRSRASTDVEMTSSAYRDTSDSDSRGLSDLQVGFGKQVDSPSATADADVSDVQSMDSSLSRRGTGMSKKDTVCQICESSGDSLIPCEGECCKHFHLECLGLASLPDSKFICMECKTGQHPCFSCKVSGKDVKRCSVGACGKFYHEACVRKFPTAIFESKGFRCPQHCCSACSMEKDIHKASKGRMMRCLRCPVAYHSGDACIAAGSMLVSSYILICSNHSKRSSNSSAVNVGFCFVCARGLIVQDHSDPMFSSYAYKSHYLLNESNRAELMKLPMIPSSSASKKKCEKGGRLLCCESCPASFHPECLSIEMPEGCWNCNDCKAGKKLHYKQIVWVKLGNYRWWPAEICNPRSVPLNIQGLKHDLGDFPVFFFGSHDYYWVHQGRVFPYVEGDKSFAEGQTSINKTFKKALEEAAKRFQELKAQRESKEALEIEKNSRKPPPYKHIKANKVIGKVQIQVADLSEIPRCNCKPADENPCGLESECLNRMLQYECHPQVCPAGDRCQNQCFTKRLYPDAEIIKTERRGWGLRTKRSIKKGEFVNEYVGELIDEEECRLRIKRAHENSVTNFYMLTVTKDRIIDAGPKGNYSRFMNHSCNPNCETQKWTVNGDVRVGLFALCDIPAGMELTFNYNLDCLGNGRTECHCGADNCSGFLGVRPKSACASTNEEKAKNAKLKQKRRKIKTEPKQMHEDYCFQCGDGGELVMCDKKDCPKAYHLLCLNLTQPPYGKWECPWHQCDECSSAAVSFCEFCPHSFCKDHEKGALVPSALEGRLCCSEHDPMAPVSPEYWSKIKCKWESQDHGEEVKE

[2] = target: T2, Histone-lysine N-methyltransferase NSD3 (Homo sapiens, UniProt Q9BZ95); experiment: as §1; assay type: cell-based
T2 sequence (Q9BZ95 whole entry): T1 sequence (whole entry)

[3] = target: T1, Histone-lysine N-methyltransferase NSD3 (Homo sapiens); experiment: Induction of NSD3 degradation in human NCI-H1703 cells at 0.001 to 5 uM by Western blot analysis; assay type: cell-based; conditions: dose 0.001-5 µM, time 12-72 hrs, TDE = time-dependent effect
[4] = target: T1, Histone-lysine N-methyltransferase NSD3 (Homo sapiens); experiment: Induction of NSD3 degradation in human NCI-H1703 cells at 0.001 to 10 uM by Western blot analysis; assay type: cell-based; conditions: dose 0.001-10 µM, time <= 72.0 hrs, TDE = time-dependent effect
[5] = target: T1, Histone-lysine N-methyltransferase NSD3 (Homo sapiens); experiment: Induction of NSD3 degradation in human NCI-H1703 cells measured upto 72 hrs by Western blot analysis; assay type: cell-based; conditions: dose 0.001-10 µM
[6] = target: T1, Histone-lysine N-methyltransferase NSD3 (Homo sapiens); experiment: Induction of NSD3 degradation in human NCI-H1703 cells at 3 uM incubated for 48 hrs in presence of MG132 by Western blot analysis; assay type: cell-based
[7] = system: NCI-H1703; experiment: Downregulation of CDC25A in human NCI-H1703 cells measured after 72 hrs by RT-qPCR method; assay type: functional, cell-based; conditions: dose 3-7.5 µM
[8] = system: NCI-H520; experiment: Downregulation of CyclinD1 level in human NCI-H520 cells at 3 to […] by Western blot analysis; assay type: functional, cell-based; conditions: dose 3-7.5 µM
[9] = system: NCI-H520; experiment: Induction of apoptosis in human NCI-H520 cells assessed as decrease in MCL-1 protein expression at 5 to 10 uM by Western blot analysis; assay type: functional, cell-based; conditions: dose 5-10 µM
[10] = system: NCI-H520; experiment: Induction of apoptosis in human NCI-H520 cells assessed as decrease in Bcl-XL protein expression at 5 to 10 uM by Western blot analysis; assay type: functional, cell-based; conditions: dose 5-10 µM
[11] = system: NCI-H1703; experiment: Induction of apoptosis in human NCI-H1703 cells assessed as early apoptotic cells at 3 uM measured after 72 hrs by PI/Annexin-V staining based flow cytometry analysis (reference value: 1.47% ); assay type: functional
[12] = system: NCI-H1703; experiment: Induction of apoptosis in human NCI-H1703 cells assessed as early apoptotic cells at 10 uM measured after 72 hrs by PI/Annexin-V staining based flow cytometry analysis (reference value: 1.47% ); assay type: functional
[13] = system: NCI-H1703; experiment: Induction of apoptosis in human NCI-H1703 cells assessed as necrotic cells at […] measured after 72 hrs by PI/Annexin-V staining based flow cytometry analysis (reference value: 2.80% ); assay type: functional; conditions: dose 7.5 µM
[14] = Downregulation of NSD3 level in human NCI-H1703 cells at 3 uM by measuring fold change by Western blot analysis relative to control; assay type: functional
[15] = Downregulation of NSD3 level in human NCI-H1703 cells at […] by measuring fold change by Western blot analysis relative to control; assay type: functional; conditions: dose 7.5 µM
[16] = Downregulation of c-Myc level in human NCI-H1703 cells at […] by measuring fold change by Western blot analysis relative to control; assay type: functional; conditions: dose 7.5 µM
[17] = Downregulation of NSD3 level in human NCI-H520 cells at […] by measuring fold change by Western blot analysis relative to control; assay type: functional; conditions: dose 7.5 µM
[18] = Downregulation of CDC25A level in human NCI-H520 cells at 5 uM by measuring fold change by Western blot analysis relative to control; assay type: functional
[19] = Downregulation of Cyclin D1 level in human NCI-H520 cells at 5 uM by measuring fold change by Western blot analysis relative to control; assay type: functional
[20] = system: NCI-H520; experiment: Induction of apoptosis in human NCI-H520 cells assessed as decrease in NSD3 protein expression at 5 uM by measuring fold change by Western blot analysis relative to control; assay type: functional
[21] = system: NCI-H520; experiment: Induction of apoptosis in human NCI-H520 cells assessed as decrease in MCL-1 protein expression at […] by measuring fold change by Western blot analysis relative to control; assay type: functional; conditions: dose 7.5 µM

Activity [1]: Dose-Dependent Effect
pEC50 [2]: 5.84
Activity [3]: Tde
Activity [4]: Tde
Activity [5]: Dose-Dependent Effect
Activity [6]: inactive
Compound: Cc1cc(CNCCCCCCCCCCC(=O)N[C@H](C(=O)N2C[C@H](O)C[C@H]2C(=O)N[C@@H](C)c2ccc(-c3scnc3C)cc2)C(C)(C)C)cc(C)c1-c1ncn(C)c1-c1ccnc2cc(F)ccc12
Activity [7]: Dose-Dependent Effect
Activity [8]: Active
Activity [9]: Active
Activity [10]: Active
Activity [11]: 1.48%
Activity [12]: 12.8%
Activity [13]: 2.99%
fold change (FC) [14]: 0.97
fold change (FC) [15]: 0.66
fold change (FC) [16]: 0.72
fold change (FC) [17]: 0.61
fold change (FC) [18]: 0.93
fold change (FC) [19]: 0.8
fold change (FC) [20]: 0.83
fold change (FC) [21]: 0.61
